From patent publication US9469854B2, “Pharmaceutical composition for treating liver diseases” (Academia Sinica, priority 2014, dated 2016)

Columns and labels:
[1] = system: miR-21-3p; test: qRT-PCR microRNA assay in primary human hepatocytes; type: cell-based; conditions: PHHs, 40 μM berberine, 2 h
Description: The primary human hepatocytes from Caucasian donors were purchased from Invitrogen and cultured following the manufacturer's instructions. The hepatocytes were thawed and transferred into cryopreserved hepatocytes recovery medium (CM7000, Invitrogen), centrifuging at room temperature, 100×g for 10 min. Then, the hepatocytes were diluted to seeding density with plating medium (CM3000, Invitrogen) and added into collagen I-coated plates (Invitrogen). These plates were incubated at 37° C. for 4-6 hours under 5% CO2 for forming a monolayer. Then, plating medium was replaced by overlay incubation medium (CM4000 and 0.35 mg/mL Geltrex™ Matrix, Invitrogen), and the incubation medium was replaced daily. In the following examples, hepatocytes form 3 to 4 donors were used for experiments. A 50 mM stock solution of berberine chloride (Sigma-Aldrich) was prepared in dimethyl sulfoxide (DMSO). Cells were treated with 40 μM of berberine chloride or 0.08% DMSO as the control. For induction of lipid droplets formation in cultured cells, 200 μM of oleic acid (Sigma-Aldrich) was added into the culture medium for 24 h. Total RNA was extracted using a TRIZOL reagent (Invitrogen) according to the manufacturer's protocol. The total RNA quantity was measured using a NanoDrop ND-1000 spectrophotometer (Nanodrop Technologies). […]

[2] = system: ACSM2A; test: qRT-PCR mRNA expression in primary human hepatocytes; type: cell-based; conditions: PHH, 40 μM berberine, 2-4 h
Description: (§1) The primary human hepatocytes from Caucasian donors were purchased from Invitrogen and cultured following the manufacturer's instructions. The hepatocytes were thawed and transferred into cryopreserved hepatocytes recovery medium (CM7000, Invitrogen), centrifuging at room temperature, 100×g for 10 min. Then, the hepatocytes were diluted to seeding density with plating medium (CM3000, Invitrogen) and added into collagen I-coated plates (Invitrogen). These plates were incubated at 37° C. for 4-6 hours under 5% CO2 for forming a monolayer. Then, plating medium was replaced by overlay incubation medium (CM4000 and 0.35 mg/mL Geltrex™ Matrix, Invitrogen), and the incubation medium was replaced daily. In the following examples, hepatocytes form 3 to 4 donors were used for experiments. A 50 mM stock solution of berberine chloride (Sigma-Aldrich) was prepared in dimethyl sulfoxide (DMSO). Cells were treated with 40 μM of berberine chloride or 0.08% DMSO as the control. For induction of lipid droplets formation in cultured cells, 200 μM of oleic acid (Sigma-Aldrich) was added into the culture medium for 24 h. Total RNA was extracted using a TRIZOL reagent (Invitrogen) according to the manufacturer's protocol. The total RNA quantity was measured using a NanoDrop ND-1000 spectrophotometer (Nanodrop Technologies). The total RNA quality and integrity were assayed using an Agilent 2100 bioanalyzer with an RNA 6000 nano kit (Agilent Technologies). Total RNAs (1 μg) were reverse-transcribed into cDNA by using M-MuLV Reverse Transcriptase (Thermo) and Oligo(dT)12-18 primers (Invitrogen) according to the manufacturer's protocol. The cDNA were then used for a real-time PCR with a LightCycler 480 SYBR Green I Master (Roche) by using primers shown in the following Table 1. The gene expression levels were normalized to GAPDH levels.

[3] = system: IL6R; test: as above; type: cell-based; conditions: PHH, 40 μM berberine, 4-8 h
Description: as §1

[4] = system: NAMPT; test: as above; type: cell-based; conditions: PHH, 40 μM berberine, 4-8 h
Description: as §1

[5] = system: DGAT2; test: qRT-PCR mRNA expression in HepG2 cells; type: cell-based, human; conditions: HepG2, miR-21-3p over-expressed, 24 h
Description: (§2) The human HepG2 cells and HEK 293T cells used in the following examples were originally obtained from the American Tissue Culture Collection (ATCC, USA). The human HCC HepG2 cell line was cultured in Minimum Essential Medium Eagle (Sigma) supplemented with 10% fetal bovine serum (FBS) (Invitrogen), 2.2 g/L of sodium bicarbonate (Sigma), 0.1 mM of non-essential amino acids (Caisson), 1 mM of sodium pyruvate (Invitrogen), and 10 of ml/L penicillin-streptomycin-amphotericin solution (Biological Industries). Human HEK-293T cells were maintained in high-glucose Dulbecco's modified eagle medium (Invitrogen) supplemented with 10% FBS and 3.7 g/L of sodium bicarbonate (Sigma). Both cell lines were cultured at 37° C. and 5% CO2.
(§3) Total RNA was extracted using a TRIZOL reagent (Invitrogen) according to the manufacturer's protocol. The total RNA quantity was measured using a NanoDrop ND-1000 spectrophotometer (Nanodrop Technologies). The total RNA quality and integrity were assayed using an Agilent 2100 bioanalyzer with an RNA 6000 nano kit (Agilent Technologies).
(§4) Total RNAs (1 μg) were reverse-transcribed into cDNA by using M-MuLV Reverse Transcriptase (Thermo) and Oligo(dT)12-18 primers (Invitrogen) according to the manufacturer's protocol. The cDNA were then used for a real-time PCR with a LightCycler 480 SYBR Green I Master (Roche) by using primers shown in the following Table 1. The gene expression levels were normalized to GAPDH levels.
(§5) The HepG2 cells were transfected at a density of 5×10^4 cells per well in a 24-well culture plates with either 50 nM of hsa-miR-21-3p (miR-21-3p mimic) or negative-control mimic (NC mimic), or with either 100 nM of hsa-miR-21-3p inhibitor (miR-21-3p inhibitor) or negative-control inhibitor (NC inhibitor) by using the DharmaFECT 4 transfection reagent (Thermo Scientific Dharmacon) according to the manufacturer's instructions. Cells were incubated for 24 h or 48 h with a microRNA mimic or inhibitor prior to RNA purification for gene expression analysis, and were incubated for 72 h for protein expression analysis.

[6] = system: TMEM137; test: qRT-PCR mRNA expression in HepG2 cells; type: cell-based, human; conditions: HepG2, 50 nM mimic transfection, 24 hours
Description: as §2, §3, §4, §5

[7] = system: HepG2 cells; test: Apoptosis (sub-G1 population) by flow cytometry with PI staining; type: cell-based, human; conditions: HepG2, 50 nM mimic transfection 72 h vs NC mimic
Description: After transfection with 50 nM of hsa-miR-21-3p mimic or the negative-control mimic for 72 h, the HepG2 cells were trypsinized and counted. Apoptosis was detected by measuring the sub-G1 population by using flow cytometry with propidium iodide (PI) staining. In brief, the cells were fixed in 70% ethanol on ice for 15 min, and stained with the PI staining solution (20 μg/mL PI, 0.1% Triton-X 100, and 0.2 mg/mL RNase A in PBS) for 30 min at room temperature and analyzed using CyAn ADP (Beckman Coulter) flow cytometry with Summit software.

[8] = system: intracellular malonyl-CoA; test: Measurement of intracellular malonyl-CoA concentration in PHH cells; type: cell-based, human; conditions: 72-h mimic transfection
Description: After transfection with 50 nM of miR-21-3p mimic or the negative-control mimic for 72 h, the PHH cells and HepG2 cells were trypsinized. The intracellular malonyl-CoA concentration was measured using the malonyl-CoA ELISA Kit (MyBioSource) according to the manufacturer's instructions.

Compound: COc1ccc2cc3[n+](cc2c1OC)CCc1cc2c(cc1-3)OCO2 [berberine]
- miR-21-3p expression (qRT-PCR) [1]: up-regulation
- mRNA expression of ACSM2A [2]: considerably decreases
- mRNA expression of IL6R [3]: decreases
- mRNA expression of NAMPT [4]: increase

Compound: hsa-miR-21-3p (CAACACCAGUCGAUGGGCUGU; listed as RNA, chemistry not given here) [miR-21-3p mimic]
- decrease in mRNA level of DGAT2 [5]: 2.3 fold
- decrease in mRNA expression of TMEM137 [6]: < 50%
- apoptosis (sub-G1 population) [7]: induced apoptosis
- intracellular malonyl-CoA concentration decrease [8]: 2.2 fold
